This passage reports melting point results from a melting point compilation (Tetko et al.; mined from patent text by program, amines drawn as free bases though some values may be those of a salt).

The structures appear in SMILES notation.

One may read the melting point as the temperature, or range, at which the solid turns liquid. `CCOC(=O)C1=C(C)N(C(C)=O)C(c2csc(C)n2)=NC1c1ccc(OC)cc1` (stereo not drawn) returned a melting point of 138 to 140 °C.

With `CC(C)C(=O)OC1C(n2ccc(N)nc2=O)OC(COC(=O)c2ccc(Cl)cc2)C1(C#C[Si](C)(C)C)OC(=O)C(C)C` (stereo not drawn), the melting point was 97 to 99 °C.

`C=CCN1CCNC1=C[N+](=O)[O-]` showed a melting point of 97 to 98 °C.

Turning to `CC(C)c1cc(C(C)C)c(CC(=O)NS(=O)(=O)Oc2c(C(C)C)cc(NS(=O)(=O)c3cccc4c(N(C)C)cccc34)cc2C(C)C)c(C(C)C)c1`, the melting point was 103 to 105 °C.

Molecule `O=S(=O)(c1ccc(Cl)cc1)C(c1cccnc1)c1cc(F)ccc1F` (stereo not drawn) had a melting point of 130 to 131 °C.

For `O=c1oc(C(F)(F)F)nc2ccc(I)cc12`, the melting point was 131 to 132 °C.

Turning to `CCCc1c2c(c(O)c3c(=O)cc(C(=O)O)oc13)CCCC2`, the melting point is 260 to 262 °C.

In the case of `O=C(O)Cn1c(=O)c(=O)[nH]c2cc(Br)c(Br)cc21`, the melting point was above 300 °C.

As to `O=C(Nc1cccc2c(=O)cc(-c3nnn[nH]3)oc12)c1ccc2c(c1)CC(COCc1ccc(F)cc1)O2` (stereo not drawn), the melting point fell in the range of 229 to 232 °C.

With `NS(=O)(=O)c1ccc(C2=C(c3ccc(Cl)c(Cl)c3)CCC2)cc1`, the melting point lay in the range of 134 to 135 °C.

Consider `CCC1N=NC(c2ccccc2)=C(O)N1C` (stereo not drawn), for which the melting point was 122 °C.

On to `O=C(Cc1ccccc1)c1ccc(C(=O)Cc2ccccc2)cc1`, for which the melting point fell in the range of 171 to 173 °C.

On to `ClCc1nc2cc(Cl)cc(Cl)c2o1`, for which the melting point lay in the range of 52 to 53 °C.

Turning to `COc1ccc(/C(C)=C/c2ccncc2)cc1OC1CCCC1`, the melting point is 78 to 79 °C.

For the molecule `O=S(=O)(Nc1cc(Cl)ccc1Cl)c1cc(S(=O)(=O)Nc2cc(Cl)ccc2Cl)c2cc(O)ccc2c1`, the melting point fell in the range of 214 to 216 °C.

For `COc1cc(C2CCC(c3cc(OC)c(OC)c(OC)c3)C2O)cc(OC)c1OC` (stereo not drawn), the melting point is 138 to 140 °C.

The molecule `CCCCC1(N2CCCC2)CC=C(c2[nH]c3ccccc3c2CCc2ccncc2)CC1` (stereo not drawn) came in with a melting point of 187 to 195 °C.

Take `CCCn1c(=O)c2[nH]c(/C=C/c3cc(OC)cc(OC)c3)nc2n(CCC)c1=O`: the melting point fell in the range of 249 to 250 °C.

`Cc1cc(C)c(OP(=O)(C(=O)c2c(C)cc(C)cc2C)c2ccccc2)c(C)c1` (stereo not drawn) came in with a melting point of 94 to 96 °C.

In the case of `COc1cc(CCC(=O)O)ccc1OCc1sc(-c2ccc(C(F)(F)F)cc2)nc1C`, the melting point fell in the range of 150 to 152 °C.

In turn, `Cc1c(C)c(Cl)c(Cl)c(Cl)c1Cl` returned a melting point of 85 to 89 °C.

`O=C1C2CCN(CC2)C1Cc1ccc(-c2ccc(F)cc2)cc1` (stereo not drawn) came in with a melting point of 122 to 123 °C.

Turning to `COC(=O)c1cccc2c(C(=O)c3ccccc3)c(C)oc12`, the melting point is 70 to 72 °C.

For the molecule `Fc1ccc(F)c(CN2CCNc3ncc(-c4ccc(N5CCOCC5)cc4)cc32)c1Cl`, the melting point lay within 217 to 219 °C.

The molecule `COC(=O)N(C(=O)Cl)c1ccc(OC(F)(F)F)cc1` yielded a melting point of 97 to 99 °C.

Molecule `CC(=O)CCNC(=O)n1cc(F)c(=O)[nH]c1=O` came in with a melting point of 158 to 159 °C.

With `COc1ccc(CCNC(=O)N(C)O)c(OC)c1`, the melting point lay within 83 to 84 °C.

As to `NC(=O)N(O)CC#CCOc1cccc(Oc2ccccc2)c1`, the melting point fell in the range of 105 to 107 °C.

For `COc1cc(-c2ccccc2)c([N+](=O)[O-])cc1OC`, the melting point fell in the range of 113 to 115 °C.

`CN(CCCCCCCC(F)(F)C(F)(F)F)CCCCCC1Cc2cc(O)ccc2C2C(F)CC3(C)C(O)CCC3C12` (stereo not drawn) displayed a melting point of 11 °C.

`CCOC(=O)c1ccc(C(C(N)=O)C(C)c2cc(C)ccc2N2CCCCC2)cc1` (stereo not drawn) gave a melting point of 132 °C.

Molecule `O=C(c1ccc(F)cc1)C1CCN(CCCN2c3ccccc3-c3ccccc3S2(=O)=O)CC1` registered a melting point of 114 °C.

Molecule `O=C(c1ccc(-c2cnc3c(c2)N(Cc2cc(F)ccc2F)CCN3)cc1)N1CCC[C@H]1CN1CCCC1` registered a melting point of 143 to 144 °C.

`CCn1nc2c(N)nc3ccccc3c2c1CC(C)(C)NCCS(C)(=O)=O` yielded a melting point of 155 to 157 °C.

As for `CCCCCCCCCC(=O)Oc1ccc(N)cc1OC(=O)CCCCCCCCC`, the melting point fell in the range of 44 to 46 °C.

`Cc1c(-c2ccc(Cl)s2)ccc(N)c1C#N`: the melting point lay within 108 to 110 °C.

`CNc1nc(Cl)cc(NS(=O)(=O)c2ccc(F)cc2)n1` registered a melting point of 121 to 123 °C.

As for `Cc1cc(C(=O)CC(=O)C(F)(F)F)c(F)cc1Cl`, the melting point fell in the range of 59 to 60 °C.

Molecule `COc1ccc(C=CC(C)=O)cc1` displayed a melting point of 74 °C.

Molecule `O=C(/C=C/c1cc(O)c(O)c([N+](=O)[O-])c1)CCCCC(=O)Nc1ccc(C(F)(F)F)cc1` showed a melting point of 194 to 197 °C.

Regarding `Cc1ccc(-c2nc3ccc(Cl)nc3n2CC(=O)N(C)C)cc1`, the melting point fell in the range of 182 to 185 °C.

On to `CCCN1C(=O)N2CCN=C2c2[nH]cnc21`, for which the melting point is 283 to 285 °C.

As to `O=c1oc(=O)n(-c2cccc(F)c2)c2ncccc12`, the melting point fell in the range of 164 to 166 °C.

In turn, `COc1ccc(/C=C(/C#N)c2c(F)cccc2F)cc1OC1CCCC1` returned a melting point of 79.1 to 81 °C.

In the case of `CCCc1c(OCCCOc2ccc(C(=O)CCC(=O)O)cc2C)ccc(C(C)=O)c1O`, the melting point lay in the range of 179 to 180 °C.

`CCCCSc1nc(N)c(C(=O)c2ccccc2)s1` had a melting point of 91 to 94 °C.

`OC[C@H]1C[C@@H](n2cnc3c(N[C@H]4CCN(c5ccc(C(F)(F)F)cc5)C4)ncnc32)[C@H](O)[C@@H]1O` had a melting point of 111 to 114 °C.

In turn, `CCOC(=O)c1cccc2c1Nc1ccc(C(=O)c3ccccc3)cc1N2C` returned a melting point of 139 to 141 °C.

`Cc1cc(C)n(-c2nc(NC3Cc4ccccc4C3)cc(N3CCOCC3)n2)n1` yielded a melting point of 66 to 70 °C.

`CCCCCC[C@H]1C[C@@H](C)OC1=O` (relative stereo) showed a melting point of 28.5 °C.

The molecule `CC(C)(C)OC(=O)[C@H]1C[C@H](C(=O)Nc2ccccc2)[C@@H](c2ccccc2)N1C(=O)CNC(=O)Nc1cccc(C(=O)O)c1` (racemic) displayed a melting point of 160 °C.

`NC(=O)NC1CCCc2sccc21` (stereo not drawn) showed a melting point of 203 to 207 °C.

`S=C(Nc1ccccc1Br)c1ccccc1` showed a melting point of 157 to 158 °C.

Molecule `O=[N+]([O-])c1cnn2c(-c3ccc(C(F)(F)F)cc3)ccnc12` came in with a melting point of 191 to 193 °C.

Take `CC(SCc1cc2cc(C(F)(F)F)ccc2n1S(=O)(=O)c1ccccc1)C(=O)O` (stereo not drawn): the melting point came out at 120 °C.

The molecule `Cc1c(-c2ccc([N+](=O)[O-])cc2)sc2[nH]c(=O)n(-c3ccccc3)c(=O)c12` registered a melting point above 300 °C.

As to `c1ccc(N=c2sc3ccccc3s2)cc1`, the melting point is 67 to 68 °C.

Take `CCN1C(=O)CCCc2c1ccc(Nc1ncc(Cl)c(Nc3ccccc3S(=O)(=O)N(C)C)n1)c2OC`: the melting point was found to be 183 °C.

In turn, `COc1ccc2c(c1O)COCc1cc(OC)c(OC)c(OC)c1-2` registered a melting point of 145 to 147 °C.

For `C[C@H](NC(=O)c1cc(Cl)c(Cl)cc1C(=O)O)C(=O)N1CCC[C@H]1C(=O)O`, the melting point was 134 to 137 °C.

The molecule `CCOC(=O)c1ccccc1NC(=O)CNc1ccccc1F` returned a melting point of 79 to 81 °C.

Molecule `CC(C)C1SC=CNC1=O` (racemic) gave a melting point of 101 to 106 °C.

`Cc1cc(Cc2cnc(N[N+](=O)[O-])[nH]c2=O)cnc1C` yielded a melting point of 212 to 213 °C.

Consider `N#CC1=Nc2cc(Cl)ccc2Oc2ccccc21`, for which the melting point lay within 161 to 168 °C.

In turn, `Cn1c(OCC(CO)CO)nc2c(NC(=O)c3ccccc3)ncnc21` returned a melting point of 151 to 153 °C.

`CCCN(CCC)C1CCc2ccc3c(c2C1)OCC3=O` (stereo not drawn) gave a melting point of 56 to 64 °C.

In turn, `Cc1ccc(S(=O)(=O)N(C)c2ncc(Cl)cc2[N+](=O)[O-])cc1` showed a melting point of 141 to 143 °C.

Turning to `[N-]=[N+]=Nc1nc2c(N)ncnc2n1C1CC(O)C(CO)O1` (stereo not drawn), the melting point was in the range of 177 to 179 °C.

Molecule `CC(C)OC(=O)C(O)C(CC1CCCCC1)NC(=O)C(Cc1c[nH]cn1)NC(=O)C(CC(=O)N1CCOCC1)Cc1cccc2ccccc12` (mixture of isomers) came in with a melting point of 103 to 106 °C.

`Cn1c(=O)c(Cc2ccccc2F)cc2cnc(S(C)(=O)=O)nc21` came in with a melting point of 154 °C.

Take `Cc1ccccc1N1CCN(Cc2ccc(Nc3ccnc4cc(C(F)(F)F)ccc34)cc2)CC1`: the melting point lay within 208 to 210 °C.

For `CNC(=O)N1CC(Oc2cccc(F)c2)C1`, the melting point fell in the range of 155 to 156 °C.

For the molecule `CC(C)C(C(=O)O)N(C)C(=O)OC(C)(C)C` (stereo not drawn), the melting point fell in the range of 83 to 85 °C.

Consider `O=c1cnc(C(F)(F)F)cn1-c1c(Cl)cc(C(F)(F)F)cc1Cl`, for which the melting point lay in the range of 109 to 111 °C.

`COC(=O)COc1cc2ccccc2c2c1c(C(=O)C(N)=O)c(C)n2Cc1cccc(-c2ccc(F)cc2)c1` came in with a melting point of 157 to 159 °C.

Regarding `CC(C)(C)OC(=O)C(CC(=O)O)N1C(=O)C2NC(C)(C)SC21` (stereo not drawn), the melting point fell in the range of 137 to 138 °C.

The molecule `CCN(CC)c1nc2ccccc2n2c(C(C)C)nnc12` returned a melting point of 93 to 95 °C.

Take `CCOCn1c(N(C(C)=O)c2cc(C)cc(C)c2)c(CC)c(=O)[nH]c1=O`: the melting point fell in the range of 182 to 183 °C.

As to `Cc1cc(NC(=O)c2cnccn2)nc(C)c1Br`, the melting point turned out to be 206 °C.

Regarding `Cn1c(=O)c(N)c(N)n(-c2ccc(Cl)cc2Cl)c1=O`, the melting point lay within 170 to 172 °C.

With `O=C(O)Cc1cccc(Oc2ccccc2O)c1O`, the melting point was in the range of 91 to 93 °C.

`Cc1nsc(NC(=O)Cc2ccc3nn(CC(C)C)cc3c2)c1Cl` displayed a melting point of 133 to 135 °C.

Regarding `CS(=O)(=O)c1ccc(C(O)c2cccc3ccccc23)cc1` (stereo not drawn), the melting point came out at 160 °C.

`Cn1c(C=O)c(-c2ccccc2)c2ccccc2c1=O`: the melting point was in the range of 181 to 182 °C.

Molecule `CC(=O)N1CCC(CCC(=O)c2ccc3c(c2)CCN3)CC1` came in with a melting point of 145 to 146 °C.

Consider `O=C(O)CCc1cn(Cc2ccc(OCc3ccccc3)cc2)cc1-c1ccccc1`, for which the melting point was in the range of 130 to 131 °C.

With `Cc1ncncc1NC(=O)Nc1ccc(-n2nc(C(F)(F)F)cc2C2CC2)cc1`, the melting point lay within 190 to 192 °C.

With `CCN1CCC(c2cccc(C(F)(F)F)c2)(C(C)(C)O)CC1`, the melting point was found to be 110 °C.
